Common to all, as to assay type: cell-based
Assay [1] concerns Streptococcus Pneumoniae. Kind of assay: E-test, broth + horse blood trial. The protocol: Tables 14 and 15 show the results of experiment whereby a bacteria culture is grown in blood instead of broth. The experiments of Table 14 were conducted by illuminating the light-transmissive wells with a light having a wavelength of 635 nm. The experiments of Table 15 were conducted by illuminating the light-transmissive wells with a light having a wavelength of 650 nm. […] The determination of the best wavelength may or may not be based on the commercial availability of the spectral line. The choice of the optimal wavelength may or may not be determined by calculating the absorbance for various wavelengths. The choice of the optimal wavelength can also be based on the combination of the comparison with the other two methods, the commercial availability and on the calculation of the absorbance for various wavelengths.

Assay [2] deals with Streptococcus Pneumoniae. Kind of assay: Optical third-derivative MIC method (MICSTRIP), broth + horse blood. The note with it: for MICSTRIP (MIC): broth + horse blood. From the text: (§1) The method of FIG. 1 starts at a time equal to zero, t0 (1). Preferably, said t0 is the moment a pure bacteria culture is finished being prepared. Alternatively, said t0 is the moment all wells contain both said bacteria culture and said antimicrobial drug. After the starting of the experiment each well is periodically illuminated with a light source and the intensity of the transmitted light is detected with a photodetector (2). Preferably, each well is illuminated and the intensity of the transmitted light is detected every hour (2). More preferably, each well is illuminated and the intensity of the transmitted light is detected every 5 to 15 min. After a predetermined time length, preferably after 4 hours, a first, a second and a third derivative of said measured intensity is calculated (3) in a first and a second time frame for each well. Preferably, said second time frame is the last measured time frame after the test has been running for said predetermined time length, and said first time frame is the time frame preceding the second time frame. More preferably, said first time frame is between two and three hours and said second time frame is between three and four hours. After the calculation of said derivatives, said first derivative in said second time frame of said reference well is compared to a growth speed threshold value (4). Preferably, said growth speed threshold value is 0.166 (4). If said first derivative in said second time frame of said reference well is larger than or equal to said growth speed threshold value said bacteria culture is classified as Type I (4). If said first derivative in said second time frame of said reference well is smaller than said growth speed threshold value said bacteria culture is classified as Type II (4). Subsequently, independent of the classification of the bacteria culture according to the two types, the method comprises the following steps which are performed for each well or for all wells except said reference well. Both said first and said second time frames are evaluated to see if there is an inflection point present in the second derivative in said first and/or said second time frame (5).
(§2) If said first and/or said second time frame comprise said inflection point than said third derivative in said first time frame is compared to said third derivative in said second time frame (6). If said third derivative in said first time frame is larger than said third derivative in said second time frame, then said first time frame and said second time frame are selected as a first and second time frame to be used in a minimal inhibitory concentration determination method (10). If said third derivative in said first time frame is not larger than said third derivative in said second time frame, then said well is illuminated again after a certain time period, preferably an hour, more preferably 5 to 15 min after said predetermined time length said, with a light source and the intensity of the transmitted light is detected with a photodetector forming a new time frame subsequent to said second time frame (7). A third derivative, and possibly also a first and/or a second derivative, is calculated in said new time frame (7). Further, in step (7) a new first time frame is put equal to said second time frame and a new second time frame to equal to said new time frame. Subsequently, said third derivative in said new first time frame is compared to said third derivative in said new second time frame (8). If said derivative in said new first time frame is larger than said third derivative in said new second time frame, then said new first time frame and said new second time frame are selected as a first and second time frame to be used in a minimal inhibitory concentration determination method (10). […]

Assay [3] concerns Streptococcus Pneumoniae. Kind of assay: BMD, broth + horse blood trial.
Assay [4] deals with Pseudomonas aeruginosa culture. Kind of assay: Optical third-derivative MIC method, culture in broth. The note with it: Pseudomonas aeruginosa, PA/2467.
Description: as §1, §2

The test system of assay [5] is Pseudomonas aeruginosa culture. Kind of assay: Broth microdilution (BMD). As to conditions: culture PA/2467.

These results are taken from patent US20220389477A1, “METHOD FOR EVALUATING ANTIBIOTIC SUSCEPTIBILITY” (Vrije Universiteit Brussel, priority 2019, published 2022).

≈ marks a conversion by molar mass, not a printed value.

On to `CC1(C)S[C@@H]2[C@H](NC(=O)Cc3ccccc3)C(=O)N2[C@H]1C(=O)O` [Benzyl-penicilline], for which the “HR E-test” value in the assay on Streptococcus Pneumoniae [1] (strain 2532), with Streptococcus Pneumoniae [1] (strain 2543), with Streptococcus Pneumoniae [1] (strain 2544) and in the assay on Streptococcus Pneumoniae [1] (strain ATCC 49619) was “no” throughout. The E-test (MIC) was 1.5 µg/mL with Streptococcus Pneumoniae [1] (strain 2543), 0.1 µg/mL with Streptococcus Pneumoniae [1] (strain 2544) and 0.25 µg/mL in the assay on Streptococcus Pneumoniae [1] (strain ATCC 49619). Further, the MICSTRIP (MIC) in the assay with Streptococcus Pneumoniae [2] (strain 2532, 635 nm) stood at 0.016 µg/mL; in the assay with Streptococcus Pneumoniae [2] (strain 2532, 650 nm) it was 0.016 µg/mL; in the assay with Streptococcus Pneumoniae [2] (strain 2543, 635 nm), 1 µg/mL; in the assay on Streptococcus Pneumoniae [2] (strain 2543, 650 nm), 1 µg/mL; in the assay with Streptococcus Pneumoniae [2] (strain 2544, 635 nm), 0.256 µg/mL; with Streptococcus Pneumoniae [2] (strain 2544, 650 nm), 0.256 µg/mL. For the same compound, the MICSTRIP (MIC) in the assay on Streptococcus Pneumoniae [2] (strain ATCC 49619, 635 nm) is 0.256 µg/mL; with Streptococcus Pneumoniae [2] (strain ATCC 49619, 650 nm), 0.256 µg/mL. For the same compound, the “HR MICSTRIP” value is reported as “no (If the ratio of the MIC value in the second time frame over the MIC value in the first time frame is lower than or equal to 4 then the ratio is labelled not to be heteroresistant)” in the assay with Streptococcus Pneumoniae [2] (strain 2543, 635 nm); “no (If the ratio of the MIC value in the second time frame over the MIC value in the first time frame is lower than or equal to 4 then the ratio is labelled not to be heteroresistant)” in the assay on Streptococcus Pneumoniae [2] (strain 2543, 650 nm); “no (If the ratio of the MIC value in the second time frame over the MIC value in the first time frame is lower than or equal to 4 then the ratio is labelled not to be heteroresistant)” in the assay with Streptococcus Pneumoniae [2] (strain ATCC 49619, 635 nm); “no (If the ratio of the MIC value in the second time frame over the MIC value in the first time frame is lower than or equal to 4 then the ratio is labelled not to be heteroresistant)” with Streptococcus Pneumoniae [2] (strain ATCC 49619, 650 nm). Moreover, the BMD (MIC) in the assay on Streptococcus Pneumoniae [3] (strain 2532) was determined as 0.016 µg/mL; with Streptococcus Pneumoniae [3] (strain 2543) it was 2 µg/mL; with Streptococcus Pneumoniae [3] (strain 2544), 0.256 µg/mL; in the assay with Streptococcus Pneumoniae [3] (strain ATCC 49619), 0.256 µg/mL.

`CO/N=C(\C(=O)N[C@@H]1C(=O)N2C(C(=O)O)=C(CSc3nc(=O)c(=O)[nH]n3C)CS[C@H]12)c1csc(N)n1` [Ceftriaxone]: the E-test (MIC) with Streptococcus Pneumoniae [1] (strain 2532) was ≤ 0.16 µg/mL; in the assay with Streptococcus Pneumoniae [1] (strain 2543) it was 0.125 µg/mL; in the assay with Streptococcus Pneumoniae [1] (strain 2544), 0.024 µg/mL; with Streptococcus Pneumoniae [1] (strain ATCC 49619) it was 0.047 µg/mL. Also, the “HR E-test” value in the assay with Streptococcus Pneumoniae [1] (strain 2532), in the assay on Streptococcus Pneumoniae [1] (strain 2543), in the assay on Streptococcus Pneumoniae [1] (strain 2544) and in the assay on Streptococcus Pneumoniae [1] (strain ATCC 49619) was “no” in each case. Besides, the MICSTRIP (MIC) with Streptococcus Pneumoniae [2] (strain 2532, 635 nm) is 0.016 µg/mL; with Streptococcus Pneumoniae [2] (strain 2532, 650 nm), 0.016 µg/mL; in the assay with Streptococcus Pneumoniae [2] (strain 2543, 635 nm), 0.256 µg/mL; with Streptococcus Pneumoniae [2] (strain 2543, 650 nm) it was 0.256 µg/mL; in the assay on Streptococcus Pneumoniae [2] (strain 2544, 635 nm), 0.064 µg/mL; in the assay on Streptococcus Pneumoniae [2] (strain 2544, 650 nm), 0.064 µg/mL. In addition, the MICSTRIP (MIC) in the assay with Streptococcus Pneumoniae [2] (strain ATCC 49619, 635 nm) is 0.032 µg/mL; in the assay with Streptococcus Pneumoniae [2] (strain ATCC 49619, 650 nm), > 16 µg/mL. The “HR MICSTRIP” value in the assay on Streptococcus Pneumoniae [2] (strain ATCC 49619, 650 nm) is listed as “no (If the ratio of the MIC value in the second time frame over the MIC value in the first time frame is lower than or equal to 4 then the ratio is labelled not to be heteroresistant)”. Also, the BMD (MIC) in the assay on Streptococcus Pneumoniae [3] (strain 2532) was found to be 0.008 µg/mL; in the assay with Streptococcus Pneumoniae [3] (strain 2543) it was 0.256 µg/mL; with Streptococcus Pneumoniae [3] (strain 2544) it was 0.064 µg/mL; in the assay with Streptococcus Pneumoniae [3] (strain ATCC 49619) it was 0.064 µg/mL.

As for `CO/N=C(\C(=O)N[C@@H]1C(=O)N2C(C(=O)[O-])=C(C[N+]3(C)CCCC3)CS[C@H]12)c1csc(N)n1` [cefepime], the MIC (in general, the lowest concentration found to suppress growth) stood at 8 µg/mL (≈ 16.6 µM) in assay [4] (5 h-6 h, only time frame, omitted from determination (Type II), read-out: MIC (25%)); 8 µg/mL (≈ 16.6 µM) in assay [4] (5 h-6 h, only time frame, read-out: MIC (40%)); 4 µg/mL (≈ 8.32 µM) in assay [4] (5 h-6 h, only time frame, read-out: MIC (60%)); 4 µg/mL (≈ 8.32 µM) in assay [4] (5 h-6 h, only time frame, read-out: MIC (75%)); 8 µg/mL (≈ 16.6 µM) in assay [4] (FIG. 5F, overall conclusion, read-out: MIC value determined by the method); 16 µg/mL (≈ 33.3 µM) in assay [5].
